Where two headings read alike, the source gives them in different places. No end group written: not given here.
Assays:
E. coli W3110 = test: microbe, parasite or virus in culture; conditions: for MIC E. coli, 12.5% MHB / MIC E. coli, Full MHB: E. coli W3110, 16–20 h at 37 °C, broth microdilution; for MIC E. coli, 12.5% MHB: 12.5% Müller–Hinton medium; for MIC E. coli, Full MHB: full Müller–Hinton medium; for MIC E. coli W3110: supplement CSV
How it was run: (§1)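 Read-out was visible growth after MTT addition, the MIC being the lowest inhibitory peptide concentration. Bacteria grown to log phase in LB were exposed in MH medium to peptide from 64 μg/mL in twofold dilutions for 15-18h at 37°C.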

K. pneumoniae NCTC 418 = test: microbe, parasite or virus in culture; conditions: for MIC K. pneumoniae, 12.5% MHB / MIC K. pneumoniae, Full MHB: K. pneumoniae NCTC 418, 16–20 h at 37 °C; for MIC K. pneumoniae, 12.5% MHB: 12.5% Müller–Hinton medium; for MIC K. pneumoniae, Full MHB: full Müller–Hinton medium; for MIC K. pneumoniae NCTC418: supplement CSV
How it was run: as §1

P. aeruginosa PAO1 = test: microbe, parasite or virus in culture; conditions: for MIC P. aeruginosa, 12.5% MHB / MIC P. aeruginosa, Full MHB: P. aeruginosa PAO1, 16–20 h at 37 °C; for MIC P. aeruginosa, 12.5% MHB: 12.5% Müller–Hinton medium; for MIC P. aeruginosa, Full MHB: full Müller–Hinton medium; for MIC P. aeruginosa PAO1: supplement CSV
How it was run: as §1

A. baumannii ATCC19606 = test: microbe, parasite or virus in culture; conditions: for MIC A. baumannii, 12.5% MHB / MIC A. baumannii, Full MHB: A. baumannii ATCC19606, 16–20 h at 37 °C; for MIC A. baumannii, 12.5% MHB: 12.5% Müller–Hinton medium; for MIC A. baumannii, Full MHB: full Müller–Hinton medium; for MIC A. baumannii ATCC19606: supplement CSV
How it was run: as §1

S. aureus COL (MRSA) = test: microbe, parasite or virus in culture; conditions: for MIC S. aureus, 12.5% MHB / MIC S. aureus, Full MHB: S. aureus COL (MRSA), 16–20 h at 37 °C; for MIC S. aureus, 12.5% MHB: 12.5% Müller–Hinton medium; for MIC S. aureus, Full MHB: full Müller–Hinton medium; for MIC S. aureus COL (MRSA): supplement CSV
How it was run: as §1

[1] = tested on: P. aeruginosa PA14 4.13 (phoQ); conditions: for MIC P. aeruginosa PA14 4.13 (phoQ), 12.5% MHB / MIC P. aeruginosa PA14 4.13 (phoQ), full MHB: polymyxin B resistant strain, 16–20 h at 37 °C; for MIC P. aeruginosa PA14 4.13 (phoQ), 12.5% MHB: 12.5% MHB pH 7.4; for MIC P. aeruginosa PA14 4.13 (phoQ), full MHB: full MHB pH 7.4; for MIC P. aeruginosa PA14 4.13: supplement CSV
K. pneumoniae OXA-48 = test: microbe, parasite or virus in culture; conditions: for MIC K. pneumoniae OXA-48, 12.5% MHB / MIC K. pneumoniae OXA-48, full MHB: carbapenem-resistant, 16–20 h at 37 °C; for MIC K. pneumoniae OXA-48, 12.5% MHB: 12.5% MHB pH 7.4; for MIC K. pneumoniae OXA-48, full MHB: full MHB pH 7.4; for MIC K. pneumoniae OXA-48: supplement CSV
How it was run: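 Minimal inhibitory concentrations come from broth microdilution in MH medium, with a top peptide concentration of 64 μg/mL halved serially.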

[2] = tested on: E. coli BW25113 sbmA::kan; conditions: Table S1, sbmA::kan mutant, 16-20 h at 37 °C; for MIC E. coli BW25113 SbmA-, 12.5% MH: 12.5% Müller-Hinton medium pH 7.4; for MIC E. coli BW25113 SbmA-, Full MH: full Müller-Hinton medium pH 7.4
Description: (§2) Minimum inhibitory concentration assay
(§3) Antimicrobial activity was assayed against P. aeruginosa PAO1, K. pneumoniae NCTC418, E. coli W3110, A. baumannii ATCC 19606, methicillin-resistant S. aureus COL (MRSA), and for selected peptides on P. aeruginosa PA14 and the polymyxin-B-resistant derivative PA14 2P4, as well as the clinical isolates ZEM-1A and ZEM9A, K. pneumoniae OXA-48, S. aureus Newman, Enterobacter cloacae and Burkholderia cenocepacia. The minimal inhibitory concentration (MIC) was determined by using broth microdilution method. A colo ny of bacteria was picked and grown in Luria-Bertani (LB) medium overnight at 37°C. For E. coli BW25113 sbmA::kan the medium was supplemented with 25 mg/L of kanamycin. The next day, the culture was then regrown in LB medium to log phase (OD600 = 0.6 to 0.8), which lasted approximately 4 h, and diluted to an OD600 of 0.022 in the desired medium. Stock solutions of 1 mg/mL of the samples were prepared in sterilized milliQ water and diluted to the beginning concentration of 64 μg/mL in 300 μL Mueller Hinton (MH)-medium. The diluted samples were added to first well of 96-well microtiter plate (TPP, untreated, Faust Laborbedarf, AG, Schaffhausen) and diluted serially by ½. Finally, 4 μL of the bacterial suspension was inoculated into the sample solutions (150 μL/well) with a final inoculation of about 5∙10^5 CFU/mL. The plates were then incubated at 37°C for 15-18h. For each assay, sterility (broth only) and growth control (broth with bacterial inoculum, without antibiotics) were checked with two columns in the plate. The next day, 15 μL of 3-(4,5-dimethylthiazol-2-yl)-2,5-diphenyltetrazolium bromide (MTT) was added to each well of the plate, such a way that MIC was defined as the lowest concentration of the peptide that inhibited visible growth of the tested […]
(§4) Table S1. Activity of stereorandomized and diastereomeric oncocins against E. coli BW25113 WT and BW25113 sbmA::kan mutant in full and 12.5% MH, at pH 7.4. […]
(§5) a) Minimum inhibitory concentration (MIC, μg/mL) was determined on E. coli BW25113 WT and […]

E. coli BW25113 WT = conditions: Table S1, 16-20 h at 37 °C; for MIC E. coli BW25113 WT, 12.5% MH: 12.5% Müller-Hinton medium pH 7.4; for MIC E. coli BW25113 WT, Full MH: full Müller-Hinton medium pH 7.4
Description: as §2, §3, §4, §5

| Substance | MIC E. coli, 12.5% MHB (E. coli W3110) | MIC E. coli, Full MHB (E. coli W3110) | MIC E. coli W3110 (E. coli W3110; 12.5% MH pH 7.4) | MIC E. coli W3110 (E. coli W3110; full MH pH 7.4) | MIC K. pneumoniae, 12.5% MHB (K. pneumoniae NCTC 418) | MIC K. pneumoniae, Full MHB (K. pneumoniae NCTC 418) | MIC K. pneumoniae NCTC418 (K. pneumoniae NCTC 418; 12.5% MH pH 7.4) | MIC K. pneumoniae NCTC418 (K. pneumoniae NCTC 418; full MH pH 7.4) | MIC P. aeruginosa, 12.5% MHB (P. aeruginosa PAO1) | MIC P. aeruginosa, Full MHB (P. aeruginosa PAO1) | MIC P. aeruginosa PAO1 (P. aeruginosa PAO1; 12.5% MH pH 7.4) | MIC P. aeruginosa PAO1 (P. aeruginosa PAO1; full MH pH 7.4) | MIC A. baumannii, 12.5% MHB (A. baumannii ATCC19606) | MIC A. baumannii, Full MHB (A. baumannii ATCC19606) | MIC A. baumannii ATCC19606 (A. baumannii ATCC19606; 12.5% MH pH 7.4) | MIC A. baumannii ATCC19606 (A. baumannii ATCC19606; full MH pH 7.4) | MIC S. aureus, 12.5% MHB (S. aureus COL (MRSA)) | MIC S. aureus, Full MHB (S. aureus COL (MRSA)) | MIC S. aureus COL (MRSA) (S. aureus COL (MRSA); 12.5% MH pH 7.4) | MIC S. aureus COL (MRSA) (S. aureus COL (MRSA); full MH pH 7.4) | other results |
| --- | --- | --- | --- | --- | --- | --- | --- | --- | --- | --- | --- | --- | --- | --- | --- | --- | --- | --- | --- | --- | --- |
| VDKPPYLPRPRPPRRIYNR [sr-Onc] (VDKPPYLPRPRPPRRIYNR-NH2; also: all 19 residues stereorandomized (1:1 L/D mixture)) | 8 µg/mL | 32 µg/mL | 8 µg/mL | 32 µg/mL | > 16 µg/mL | > 64 µg/mL | >16 µg/mL | >64 µg/mL | 8 µg/mL | > 64 µg/mL | 8 µg/mL | >64 µg/mL | 8 µg/mL | 32 µg/mL | 8 µg/mL | 32 µg/mL | >64 / >64 μg/mL | >64 / >64 μg/mL | >64 µg/mL | >64 µg/mL | MIC P. aeruginosa PA14 4.13 (phoQ), 12.5% MHB [1]: 16 µg/mL; MIC P. aeruginosa PA14 4.13 (phoQ), full MHB [1]: > 64 µg/mL; MIC P. aeruginosa PA14 4.13 ([1]; 12.5% MH pH 7.4): 16 µg/mL; MIC P. aeruginosa PA14 4.13 ([1]; full MH pH 7.4): >64 µg/mL; MIC K. pneumoniae OXA-48, 12.5% MHB (K. pneumoniae OXA-48): >64/>64 μg/mL; MIC K. pneumoniae OXA-48, full MHB (K. pneumoniae OXA-48): >64/>64 μg/mL; MIC K. pneumoniae OXA-48 (K. pneumoniae OXA-48; 12.5% MH pH 7.4): >64 µg/mL; MIC K. pneumoniae OXA-48 (K. pneumoniae OXA-48; full MH pH 7.4): >64 µg/mL; MIC E. coli BW25113 SbmA-, 12.5% MH [2]: 8 to 16 µg/mL; MIC E. coli BW25113 SbmA-, Full MH [2]: > 64 µg/mL; MIC E. coli BW25113 WT, 12.5% MH (E. coli BW25113 WT): 8 µg/mL; MIC E. coli BW25113 WT, Full MH (E. coli BW25113 WT): > 64 µg/mL |
| polymyxin B [PMB, reference compound] | 0.5 µg/mL | 0.25 µg/mL | 0.5 µg/mL | 0.25 µg/mL | 1 µg/mL | 0.5 µg/mL | 1 µg/mL | 0.5 µg/mL | 1 µg/mL | 0.5 µg/mL | 1 µg/mL | 0.5 µg/mL | 0.5 µg/mL | 0.25 µg/mL | 0.5 µg/mL | 0.25 µg/mL | >16 / 16 μg/mL | >16 / 16 μg/mL | 16 µg/mL | >16 µg/mL | MIC P. aeruginosa PA14 4.13 (phoQ), 12.5% MHB [1]: 2/2 μg/mL; MIC P. aeruginosa PA14 4.13 (phoQ), full MHB [1]: 2/2 μg/mL; MIC P. aeruginosa PA14 4.13 ([1]; 12.5% MH pH 7.4): 2 µg/mL; MIC P. aeruginosa PA14 4.13 ([1]; full MH pH 7.4): 2 µg/mL; MIC K. pneumoniae OXA-48, 12.5% MHB (K. pneumoniae OXA-48): 1–2/1–2 μg/mL; MIC K. pneumoniae OXA-48, full MHB (K. pneumoniae OXA-48): 1–2/1–2 μg/mL; MIC K. pneumoniae OXA-48 (K. pneumoniae OXA-48; 12.5% MH pH 7.4): 1 to 2 µg/mL; MIC K. pneumoniae OXA-48 (K. pneumoniae OXA-48; full MH pH 7.4): 1 to 2 µg/mL; MIC E. coli BW25113 SbmA-, 12.5% MH [2]: 1 µg/mL; MIC E. coli BW25113 SbmA-, Full MH [2]: 1 µg/mL; MIC E. coli BW25113 WT, 12.5% MH (E. coli BW25113 WT): 1 to 2 µg/mL; MIC E. coli BW25113 WT, Full MH (E. coli BW25113 WT): 2 µg/mL |

— publication PMC11571207, “Stereorandomized Oncocins with Preserved Ribosome Binding and Antibacterial Activity” (Journal of Medicinal Chemistry, 2024)
